Data published in the kinase profiling compilation of Christmann-Franck et al. (2016).

What was measured:
Assay in all cases: KINOMEscan competition binding
Conditions in all cases: compound 10.0 µM
TIE1 (human) = TIE1 (human) (UniProt P35590)
LATS2 (human) = LATS2 (human) (UniProt Q9NRM7)
TLK2 (human) = TLK2 (human) (UniProt Q86UE8)
CIT (human) = CIT (human) (UniProt O14578)
[1] = tested on: FLT3 (human), P36888 [R834Q]
SRMS (human) = SRMS (human) (UniProt Q9H3Y6)
CAMK2G (human) = CAMK2G (human) (UniProt Q13555)
TAOK3 (human) = TAOK3 (human) (UniProt Q9H2K8)
ULK2 (human) = ULK2 (human) (UniProt Q8IYT8)
PAK7 (human) = PAK7 (human) (UniProt Q9P286)
MKNK2 (human) = MKNK2 (human) (UniProt Q9HBH9)
ULK3 (human) = ULK3 (human) (UniProt Q6PHR2)
PAK3 (human) = PAK3 (human) (UniProt O75914)
CDKL3 (human) = CDKL3 (human) (UniProt Q8IVW4)
PAK4 (human) = PAK4 (human) (UniProt O96013)
CAMK1G (human) = CAMK1G (human) (UniProt Q96NX5)
MAP4K5 (human) = MAP4K5 (human) (UniProt Q9Y4K4)
AKT2 (human) = AKT2 (human) (UniProt P31751)
MAPK3 (human) = MAPK3 (human) (UniProt P27361)
GRK7 (human) = GRK7 (human) (UniProt Q8WTQ7)
CLK3 (human) = CLK3 (human) (UniProt P49761)
MAPK15 (human) = MAPK15 (human) (UniProt Q8TD08)
MAP3K15 (human) = MAP3K15 (human) (UniProt Q6ZN16)
ADCK3 (human) = ADCK3 (human) (UniProt Q8NI60)
NUAK2 (human) = NUAK2 (human) (UniProt Q9H093)
MAPK12 (human) = MAPK12 (human) (UniProt P53778)
PDGFRA (human) = PDGFRA (human) (UniProt P16234)
PRKD3 (human) = PRKD3 (human) (UniProt O94806)
PRKCE (human) = PRKCE (human) (UniProt Q02156)
BTK (human) = BTK (human) (UniProt Q06187)
PIP5K1C (human) = PIP5K1C (human) (UniProt O60331)
ACVRL1 (human) = ACVRL1 (human) (UniProt P37023)
FLT1 (human) = FLT1 (human) (UniProt P17948)
PTK2B (human) = PTK2B (human) (UniProt Q14289)
SNRK (human) = SNRK (human) (UniProt Q9NRH2)
EPHA8 (human) = EPHA8 (human) (UniProt P29322)
PRKG1 (human) = PRKG1 (human) (UniProt Q13976)
PRPF4B (human) = PRPF4B (human) (UniProt Q13523)
SGK110 (human) = SGK110 (human) (UniProt P0C264)
MAK (human) = MAK (human) (UniProt P20794)
MAST1 (human) = MAST1 (human) (UniProt Q9Y2H9)

Chain of TAOK3 (human) (Q9H2K8 whole entry, looked up): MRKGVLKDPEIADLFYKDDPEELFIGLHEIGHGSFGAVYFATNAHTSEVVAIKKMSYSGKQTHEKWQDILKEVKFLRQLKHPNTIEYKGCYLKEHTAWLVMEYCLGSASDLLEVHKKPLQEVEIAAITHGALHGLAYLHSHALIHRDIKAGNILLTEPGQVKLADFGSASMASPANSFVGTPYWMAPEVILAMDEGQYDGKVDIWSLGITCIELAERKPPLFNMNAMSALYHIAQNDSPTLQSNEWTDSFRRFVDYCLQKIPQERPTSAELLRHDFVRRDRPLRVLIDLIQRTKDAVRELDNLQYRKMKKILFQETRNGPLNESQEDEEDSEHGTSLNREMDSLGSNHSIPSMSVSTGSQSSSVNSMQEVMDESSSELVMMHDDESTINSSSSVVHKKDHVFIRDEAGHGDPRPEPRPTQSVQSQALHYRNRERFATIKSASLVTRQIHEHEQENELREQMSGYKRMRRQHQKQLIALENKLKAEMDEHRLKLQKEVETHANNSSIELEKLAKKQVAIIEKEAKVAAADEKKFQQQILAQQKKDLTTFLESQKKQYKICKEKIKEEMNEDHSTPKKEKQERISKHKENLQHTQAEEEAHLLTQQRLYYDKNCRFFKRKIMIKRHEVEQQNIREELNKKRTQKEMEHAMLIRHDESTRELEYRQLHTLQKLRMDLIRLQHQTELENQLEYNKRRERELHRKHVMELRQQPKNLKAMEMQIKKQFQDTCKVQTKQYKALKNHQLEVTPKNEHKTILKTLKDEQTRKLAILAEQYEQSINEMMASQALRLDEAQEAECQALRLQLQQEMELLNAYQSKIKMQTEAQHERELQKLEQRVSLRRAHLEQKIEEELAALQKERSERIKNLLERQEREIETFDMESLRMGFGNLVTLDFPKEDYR
Chain of LATS2 (human) (Q9NRM7 whole entry, looked up): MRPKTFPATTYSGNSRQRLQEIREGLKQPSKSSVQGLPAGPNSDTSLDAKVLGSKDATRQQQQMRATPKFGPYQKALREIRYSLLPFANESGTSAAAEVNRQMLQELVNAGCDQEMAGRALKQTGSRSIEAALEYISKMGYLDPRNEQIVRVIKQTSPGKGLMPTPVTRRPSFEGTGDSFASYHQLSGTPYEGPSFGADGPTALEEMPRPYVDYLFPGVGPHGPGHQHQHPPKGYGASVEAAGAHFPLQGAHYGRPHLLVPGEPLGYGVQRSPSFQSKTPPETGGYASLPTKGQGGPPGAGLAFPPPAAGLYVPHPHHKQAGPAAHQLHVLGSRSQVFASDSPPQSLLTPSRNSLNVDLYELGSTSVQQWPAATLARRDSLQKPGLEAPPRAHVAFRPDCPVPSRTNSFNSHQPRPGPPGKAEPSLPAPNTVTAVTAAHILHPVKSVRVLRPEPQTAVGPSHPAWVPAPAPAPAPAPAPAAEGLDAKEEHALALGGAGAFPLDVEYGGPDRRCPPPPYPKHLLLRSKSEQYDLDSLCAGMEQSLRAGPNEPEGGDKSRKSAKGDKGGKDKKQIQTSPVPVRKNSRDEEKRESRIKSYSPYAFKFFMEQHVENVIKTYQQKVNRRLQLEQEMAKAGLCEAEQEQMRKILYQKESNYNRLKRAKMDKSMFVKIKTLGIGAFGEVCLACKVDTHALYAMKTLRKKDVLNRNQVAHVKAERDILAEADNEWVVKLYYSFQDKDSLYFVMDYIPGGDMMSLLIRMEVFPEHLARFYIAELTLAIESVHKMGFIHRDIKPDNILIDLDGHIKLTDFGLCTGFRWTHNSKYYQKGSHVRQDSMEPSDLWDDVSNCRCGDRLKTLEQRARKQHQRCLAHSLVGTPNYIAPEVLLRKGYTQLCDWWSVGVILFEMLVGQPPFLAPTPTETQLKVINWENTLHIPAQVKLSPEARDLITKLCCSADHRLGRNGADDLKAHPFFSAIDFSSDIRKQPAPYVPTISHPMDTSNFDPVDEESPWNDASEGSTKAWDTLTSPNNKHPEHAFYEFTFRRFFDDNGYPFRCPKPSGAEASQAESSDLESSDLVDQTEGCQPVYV
Chain of TIE1 (human) (P35590 whole entry, looked up): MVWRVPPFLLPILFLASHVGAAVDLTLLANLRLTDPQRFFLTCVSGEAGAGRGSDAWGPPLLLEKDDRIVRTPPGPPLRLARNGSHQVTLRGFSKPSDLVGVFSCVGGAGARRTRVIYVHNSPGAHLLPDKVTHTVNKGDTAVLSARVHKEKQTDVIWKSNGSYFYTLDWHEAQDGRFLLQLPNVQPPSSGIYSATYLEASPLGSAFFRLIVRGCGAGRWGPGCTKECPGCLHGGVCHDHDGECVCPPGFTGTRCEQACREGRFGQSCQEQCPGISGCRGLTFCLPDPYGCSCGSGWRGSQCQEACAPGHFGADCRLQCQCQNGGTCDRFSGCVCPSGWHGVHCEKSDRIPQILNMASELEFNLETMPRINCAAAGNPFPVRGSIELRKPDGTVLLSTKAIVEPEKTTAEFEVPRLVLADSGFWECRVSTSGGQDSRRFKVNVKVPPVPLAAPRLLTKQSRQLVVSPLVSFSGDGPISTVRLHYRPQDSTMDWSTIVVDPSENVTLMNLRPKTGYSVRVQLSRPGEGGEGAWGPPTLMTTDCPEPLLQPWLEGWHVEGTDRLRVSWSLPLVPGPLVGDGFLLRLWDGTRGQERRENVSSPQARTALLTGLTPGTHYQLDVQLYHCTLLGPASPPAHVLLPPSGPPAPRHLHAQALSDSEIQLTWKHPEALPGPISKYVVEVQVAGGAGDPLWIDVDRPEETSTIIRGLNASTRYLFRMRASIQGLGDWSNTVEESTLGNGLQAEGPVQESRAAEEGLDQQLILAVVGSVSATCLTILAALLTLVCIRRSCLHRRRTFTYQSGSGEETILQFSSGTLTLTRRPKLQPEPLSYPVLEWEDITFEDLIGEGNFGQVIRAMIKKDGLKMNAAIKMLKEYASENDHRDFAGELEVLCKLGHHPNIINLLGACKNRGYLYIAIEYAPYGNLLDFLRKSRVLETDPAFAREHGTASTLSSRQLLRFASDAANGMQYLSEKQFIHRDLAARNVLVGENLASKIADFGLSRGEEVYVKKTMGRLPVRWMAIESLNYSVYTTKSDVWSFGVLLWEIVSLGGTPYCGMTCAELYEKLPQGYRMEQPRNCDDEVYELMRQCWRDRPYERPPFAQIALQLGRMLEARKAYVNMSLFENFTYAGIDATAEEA
Chain of PRKD3 (human) (O94806 whole entry, looked up): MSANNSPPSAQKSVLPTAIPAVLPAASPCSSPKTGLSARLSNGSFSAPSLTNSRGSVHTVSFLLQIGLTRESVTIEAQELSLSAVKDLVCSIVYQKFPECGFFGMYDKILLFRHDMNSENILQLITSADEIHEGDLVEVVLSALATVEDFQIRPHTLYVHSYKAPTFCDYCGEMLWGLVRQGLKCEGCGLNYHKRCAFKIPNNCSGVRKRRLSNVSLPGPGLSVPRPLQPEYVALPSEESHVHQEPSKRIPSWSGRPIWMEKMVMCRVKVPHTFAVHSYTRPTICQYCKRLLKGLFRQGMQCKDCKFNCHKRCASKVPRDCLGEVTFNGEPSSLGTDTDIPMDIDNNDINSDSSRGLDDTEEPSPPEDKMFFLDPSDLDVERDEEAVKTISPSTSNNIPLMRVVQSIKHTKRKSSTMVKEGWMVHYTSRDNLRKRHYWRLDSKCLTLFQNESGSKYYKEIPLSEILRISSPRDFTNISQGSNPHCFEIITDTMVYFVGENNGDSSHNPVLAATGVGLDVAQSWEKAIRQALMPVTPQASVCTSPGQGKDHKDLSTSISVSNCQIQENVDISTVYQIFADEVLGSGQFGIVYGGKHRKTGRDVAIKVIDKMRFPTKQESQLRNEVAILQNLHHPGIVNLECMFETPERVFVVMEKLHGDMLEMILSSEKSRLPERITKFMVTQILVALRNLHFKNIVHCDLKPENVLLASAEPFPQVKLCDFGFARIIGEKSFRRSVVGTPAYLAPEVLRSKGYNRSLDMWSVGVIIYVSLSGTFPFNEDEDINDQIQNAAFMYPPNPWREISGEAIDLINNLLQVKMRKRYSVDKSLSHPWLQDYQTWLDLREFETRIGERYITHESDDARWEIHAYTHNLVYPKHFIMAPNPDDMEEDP
Chain of MAPK15 (human) (Q8TD08 whole entry, looked up): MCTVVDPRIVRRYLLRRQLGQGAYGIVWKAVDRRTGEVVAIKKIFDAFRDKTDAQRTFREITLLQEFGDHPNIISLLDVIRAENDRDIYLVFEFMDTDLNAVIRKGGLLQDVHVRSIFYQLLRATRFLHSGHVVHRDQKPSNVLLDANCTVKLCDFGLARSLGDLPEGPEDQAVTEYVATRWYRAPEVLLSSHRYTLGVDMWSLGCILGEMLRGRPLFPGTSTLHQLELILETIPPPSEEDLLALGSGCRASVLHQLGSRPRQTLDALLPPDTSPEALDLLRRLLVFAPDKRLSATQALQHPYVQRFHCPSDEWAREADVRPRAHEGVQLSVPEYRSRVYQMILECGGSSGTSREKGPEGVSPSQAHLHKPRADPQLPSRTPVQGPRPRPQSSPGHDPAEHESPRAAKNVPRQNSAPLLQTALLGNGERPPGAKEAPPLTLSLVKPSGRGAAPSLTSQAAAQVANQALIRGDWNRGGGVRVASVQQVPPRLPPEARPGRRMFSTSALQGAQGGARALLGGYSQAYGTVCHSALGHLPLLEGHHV
Chain of SGK110 (human) (P0C264 whole entry, looked up): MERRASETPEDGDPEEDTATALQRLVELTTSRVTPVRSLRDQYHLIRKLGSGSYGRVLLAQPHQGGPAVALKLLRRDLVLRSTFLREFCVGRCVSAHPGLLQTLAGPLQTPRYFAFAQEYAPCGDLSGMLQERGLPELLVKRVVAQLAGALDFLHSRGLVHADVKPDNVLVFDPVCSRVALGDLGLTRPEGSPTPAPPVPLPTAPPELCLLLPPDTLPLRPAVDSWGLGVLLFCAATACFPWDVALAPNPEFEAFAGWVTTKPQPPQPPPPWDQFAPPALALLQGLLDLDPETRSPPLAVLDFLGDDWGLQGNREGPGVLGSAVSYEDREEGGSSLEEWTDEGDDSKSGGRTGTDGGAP

Structure (SMILES): COc1cc2ncnc(-n3nc(-c4ccccn4)nc3N)c2cc1OC
- kinase still bound, per cent of control (TIE1 (human)): 93%
- kinase still bound, per cent of control (LATS2 (human)): 11%
- kinase still bound, per cent of control (TLK2 (human)): 40%
- kinase still bound, per cent of control (CIT (human)): 30%
- kinase still bound, per cent of control [1]: 22%
- kinase still bound, per cent of control (SRMS (human)): 27%
- kinase still bound, per cent of control (CAMK2G (human)): 56%
- kinase still bound, per cent of control (TAOK3 (human)): 39%
- kinase still bound, per cent of control (ULK2 (human)): 3%
- kinase still bound, per cent of control (PAK7 (human)): 63%
- kinase still bound, per cent of control (MKNK2 (human)): 8.4%
- kinase still bound, per cent of control (ULK3 (human)): 10%
- kinase still bound, per cent of control (PAK3 (human)): 12%
- kinase still bound, per cent of control (CDKL3 (human)): 5.3%
- kinase still bound, per cent of control (PAK4 (human)): 72%
- kinase still bound, per cent of control (CAMK1G (human)): 34%
- kinase still bound, per cent of control (MAP4K5 (human)): 45%
- kinase still bound, per cent of control (AKT2 (human)): 42%
- kinase still bound, per cent of control (MAPK3 (human)): 67%
- kinase still bound, per cent of control (GRK7 (human)): 11%
- kinase still bound, per cent of control (CLK3 (human)): 3.6%
- kinase still bound, per cent of control (MAPK15 (human)): 0.55%
- kinase still bound, per cent of control (MAP3K15 (human)): 54%
- kinase still bound, per cent of control (ADCK3 (human)): 10%
- kinase still bound, per cent of control (NUAK2 (human)): 37%
- kinase still bound, per cent of control (MAPK12 (human)): 21%
- kinase still bound, per cent of control (PDGFRA (human)): 57%
- kinase still bound, per cent of control (PRKD3 (human)): 42%
- kinase still bound, per cent of control (PRKCE (human)): 65%
- kinase still bound, per cent of control (BTK (human)): 51%
- kinase still bound, per cent of control (PIP5K1C (human)): 5%
- kinase still bound, per cent of control (ACVRL1 (human)): 15%
- kinase still bound, per cent of control (FLT1 (human)): 48%
- kinase still bound, per cent of control (PTK2B (human)): 75%
- kinase still bound, per cent of control (SNRK (human)): 47%
- kinase still bound, per cent of control (EPHA8 (human)): 59%
- kinase still bound, per cent of control (PRKG1 (human)): 100%
- kinase still bound, per cent of control (PRPF4B (human)): 93%
- kinase still bound, per cent of control (SGK110 (human)): 100%
- kinase still bound, per cent of control (MAK (human)): 100%
- kinase still bound, per cent of control (MAST1 (human)): 73%

Structure (SMILES): CN(C)C/C=C/C(=O)Nc1ccc(C(=O)Nc2cccc(Nc3nccc(-c4cccnc4)n3)c2)cc1
- kinase still bound, per cent of control (TIE1 (human)): 55%
- kinase still bound, per cent of control (LATS2 (human)): 86%
- kinase still bound, per cent of control (TLK2 (human)): 100%
- kinase still bound, per cent of control (CIT (human)): 38%
- kinase still bound, per cent of control [1]: 83%
- kinase still bound, per cent of control (SRMS (human)): 85%
- kinase still bound, per cent of control (CAMK2G (human)): 76%
- kinase still bound, per cent of control (TAOK3 (human)): 37%
- kinase still bound, per cent of control (ULK2 (human)): 99%
- kinase still bound, per cent of control (PAK7 (human)): 52%
- kinase still bound, per cent of control (MKNK2 (human)): 7.3%
- kinase still bound, per cent of control (ULK3 (human)): 88%
- kinase still bound, per cent of control (PAK3 (human)): 100%
- kinase still bound, per cent of control (CDKL3 (human)): 20%
- kinase still bound, per cent of control (PAK4 (human)): 83%
- kinase still bound, per cent of control (CAMK1G (human)): 64%
- kinase still bound, per cent of control (MAP4K5 (human)): 59%
- kinase still bound, per cent of control (AKT2 (human)): 100%
- kinase still bound, per cent of control (MAPK3 (human)): 100%
- kinase still bound, per cent of control (GRK7 (human)): 98%
- kinase still bound, per cent of control (CLK3 (human)): 100%
- kinase still bound, per cent of control (MAPK15 (human)): 23%
- kinase still bound, per cent of control (MAP3K15 (human)): 56%
- kinase still bound, per cent of control (ADCK3 (human)): 100%
- kinase still bound, per cent of control (NUAK2 (human)): 30%
- kinase still bound, per cent of control (MAPK12 (human)): 76%
- kinase still bound, per cent of control (PDGFRA (human)): 4%
- kinase still bound, per cent of control (PRKD3 (human)): 94%
- kinase still bound, per cent of control (PRKCE (human)): 75%
- kinase still bound, per cent of control (BTK (human)): 71%
- kinase still bound, per cent of control (PIP5K1C (human)): 20%
- kinase still bound, per cent of control (ACVRL1 (human)): 97%
- kinase still bound, per cent of control (FLT1 (human)): 46%
- kinase still bound, per cent of control (PTK2B (human)): 100%
- kinase still bound, per cent of control (SNRK (human)): 66%
- kinase still bound, per cent of control (EPHA8 (human)): 91%
- kinase still bound, per cent of control (PRKG1 (human)): 100%
- kinase still bound, per cent of control (PRPF4B (human)): 100%
- kinase still bound, per cent of control (SGK110 (human)): 100%
- kinase still bound, per cent of control (MAK (human)): 100%
- kinase still bound, per cent of control (MAST1 (human)): 100%

Structure (SMILES): N#CCNC(=O)c1ccc(-c2ccnc(Nc3ccc(N4CCOCC4)cc3)n2)cc1
- kinase still bound, per cent of control (TIE1 (human)): 87%
- kinase still bound, per cent of control (LATS2 (human)): 74%
- kinase still bound, per cent of control (TLK2 (human)): 88%
- kinase still bound, per cent of control (CIT (human)): 0.35%
- kinase still bound, per cent of control [1]: 100%
- kinase still bound, per cent of control (SRMS (human)): 100%
- kinase still bound, per cent of control (CAMK2G (human)): 36%
- kinase still bound, per cent of control (TAOK3 (human)): 100%
- kinase still bound, per cent of control (ULK2 (human)): 60%
- kinase still bound, per cent of control (PAK7 (human)): 56%
- kinase still bound, per cent of control (MKNK2 (human)): 1.2%
- kinase still bound, per cent of control (ULK3 (human)): 0.25%
- kinase still bound, per cent of control (PAK3 (human)): 73%
- kinase still bound, per cent of control (CDKL3 (human)): 60%
- kinase still bound, per cent of control (PAK4 (human)): 100%
- kinase still bound, per cent of control (CAMK1G (human)): 30%
- kinase still bound, per cent of control (MAP4K5 (human)): 100%
- kinase still bound, per cent of control (AKT2 (human)): 76%
- kinase still bound, per cent of control (MAPK3 (human)): 100%
- kinase still bound, per cent of control (GRK7 (human)): 100%
- kinase still bound, per cent of control (CLK3 (human)): 91%
- kinase still bound, per cent of control (MAPK15 (human)): 0.25%
- kinase still bound, per cent of control (MAP3K15 (human)): 68%
- kinase still bound, per cent of control (ADCK3 (human)): 90%
- kinase still bound, per cent of control (NUAK2 (human)): 8.9%
- kinase still bound, per cent of control (MAPK12 (human)): 100%
- kinase still bound, per cent of control (PDGFRA (human)): 100%
- kinase still bound, per cent of control (PRKD3 (human)): 65%
- kinase still bound, per cent of control (PRKCE (human)): 59%
- kinase still bound, per cent of control (BTK (human)): 75%
- kinase still bound, per cent of control (PIP5K1C (human)): 54%
- kinase still bound, per cent of control (ACVRL1 (human)): 47%
- kinase still bound, per cent of control (FLT1 (human)): 55%
- kinase still bound, per cent of control (PTK2B (human)): 86%
- kinase still bound, per cent of control (SNRK (human)): 89%
- kinase still bound, per cent of control (EPHA8 (human)): 83%
- kinase still bound, per cent of control (PRKG1 (human)): 100%
- kinase still bound, per cent of control (PRPF4B (human)): 8%
- kinase still bound, per cent of control (SGK110 (human)): 83%
- kinase still bound, per cent of control (MAK (human)): 100%
- kinase still bound, per cent of control (MAST1 (human)): 42%
